{
  "source": "patent US6291488A",
  "about": "“Preventing protozoal infections” (Glaxo Wellcome Inc., priority 1992, dated 2001)",
  "key": {"[1]": {"test_system": "P. falciparum W-2 (multi-drug resistant W-2 clone)", "experiment": "In vitro drug combination sensitivity (Desjardins hypoxanthine incorporation), W-2 clone", "type": "cell-based", "conditions": "drug combined with compound of Example 1, positive = synergistic, negative = antagonism, 0 = additive", "procedure": "(§1) Antimalarial activity in this system is assessed by inhibition of radiolabelled hypoxanthine incorporation into parasites by graded concentrations of drugs.\n(§2) The drugs tested and their solvents are listed below:\n(§3) In order to study drug combinations, drug solutions at starting concentrations were combined in various ratios and 1:5,1:2,2:1 and 5:1). […] Serial 1:3 dilutions of the drugs with media were made to fill the 96-well microtitre plate using a 12-channel pipetter. To evaluate drugs classified as dihydrofolic acid reductase (DHFR) inhibitors, modified culture medium was used which contained only physiologic concentrations of folic acid and PABA.\n(§4) Individual IC50 s were calculated using the \"MINSQ\" program from Micromath Scientific Software. Each set of paired data was fitted to the hyperbolic tangent function used by Desjardins.\n(§5) An isobologram was constructed by fitting the data to the equation:\n(§6) Y1-[Xi /(Xi +e^I *(1-Xi))]\n(§7) I=interaction parameter indicating degree of reversal\nPositive values of I indicated a synergistic combination, negative values indicated antagonism and I=O indicated additive interaction. […]"}, "[2]": {"test_system": "P. falciparum D-6 (drug-sensitive but melfloquine resistant D-6 clone)", "experiment": "In vitro drug combination sensitivity (Desjardins hypoxanthine incorporation), D-6 clone", "type": "cell-based", "conditions": "drug combined with compound of Example 1, positive = synergistic, negative = antagonism, 0 = additive", "procedure": "as §1, §2, §3, §4, §5, §6, §7\n(§8) Positive values of I indicated a synergistic combination, negative values indicated antagonism and I=O indicated additive interaction.\n(§9) The optimum ratio of the combination with proguanil was estimated for each of the three strains of malaria parasite by determining the ratio of the IC50 of proguanil to the IC50 of the compound of Formula (II)."}, "Pneumocystis": {"test_system": "Pneumocystis", "experiment": "Anti-Pneumocystis activity in vivo, scid mouse model of Pneumocystis pneumonia", "parameters": "species or system P. carinii; scid mice; key to Mean Score ±SE: score 0 = no infection, +4 = very heavy infection", "conditions": "for number of mice with SCORE 0: 0 = no infection; for % of Control: mean score", "procedure": "Comparison of anti-Pneumocystis activities in vivo of compound of Example 1 proguanil and combinations thereof\nActivities of the compounds and combinations were examined in a scid mouse model of Pneumocystis pneumonia.\nThe level of infection of mice in each group was measured using standard lung impression smears and immunofluorescence tests. A score was assigned to each mouse where 0=no infection and +4=very heavy infection."}, "T. gondii C56 strain": {"test_system": "T. gondii C56 strain", "experiment": "Anti-Toxoplasma activity in vivo, mouse model of T. gondii", "parameters": "species or system T. gondii; CBA/CA mice", "conditions": "oral gavage; for Mean Time to Death: 10 days", "source_text": "Comparison of anti-Toxoplasma activities in vivo of compound of Example 1, proguanil and combinations thereof\nActivities of the compounds and combinations were examined in a mouse model of T. gondii, using the increase in time to death and percent survival of the mice as measures of drug activity.\nGroups of 10, 20 gm CBA/CA mice were infected orally by gavage with 6 cysts of the C56 strain of T. gondii and drug treatment was started 3 days later and continued for 10 day. All drugs were administered orally by gavage. The following groups were examined:\nAll animals were examined twice daily for 30 days and all deaths recorded."}, "[3]": {"test_system": "P. falciparum C2B (isolate resistant to the compound of example 1)", "type": "cell-based", "conditions": "drug combined with compound of Example 1, positive = synergistic, negative = antagonism, 0 = additive", "procedure": "as §1, §2, §3, §4, §5, §6, §7, §8, §9"}, "[4]": {"conditions": "25 mg/kg p.o. daily, +4 = very heavy infection"}},
  "note": "“And” between values parts separate entries of the source, which are not always exact repeats. Equal values may be shown once.",
  "data": [
    {"smiles": "CN(C)C1C(=O)C(C(N)=O)=C(O)C2(O)C(=O)C3=C(O)c4c(O)cccc4C(C)(O)C3CC12", "note": "(centres unmarked) [Tetracycline]", "values": [
      {"measurement": "I (interaction parameter)", "setting": "[1]", "result": 1.27},
      {"measurement": "I (interaction parameter)", "setting": "[2]", "result": 1.11}
    ]},
    {"smiles": "O=C1C(O)=C([C@H]2CC[C@H](c3ccc(Cl)cc3)CC2)C(=O)c2ccccc21", "note": "[Atovaquone, 2-[4-(4-chlorophenyl)cyclohexyl]-3-hydroxy-1,4-naphthoquinone]", "values": [
      {"measurement": "Mean Score ±SE", "setting": "Pneumocystis; 25 mg/kg p.o. daily", "result": "3.10 ± 0.17"},
      {"measurement": "No. Infected/No. Examined", "setting": "Pneumocystis; 25 mg/kg p.o. daily", "result": "10/10"},
      {"measurement": "number of mice with SCORE +1", "setting": "Pneumocystis; 25 mg/kg p.o. daily", "result": 0},
      {"measurement": "number of mice with SCORE +3", "setting": "Pneumocystis; 25 mg/kg p.o. daily", "result": 1},
      {"measurement": "number of mice with SCORE +4", "setting": "Pneumocystis; 25 mg/kg p.o. daily", "result": 7},
      {"measurement": "number of mice with SCORE 0", "setting": "Pneumocystis; 25 mg/kg p.o. daily", "result": 0},
      {"measurement": "number of mice with SCORE +4", "setting": "Pneumocystis; [4]", "result": 2},
      {"measurement": "Mean Score ±SE", "setting": "Pneumocystis; 50 mg/kg p.o. daily", "result": "2.50 ± 0.16"},
      {"measurement": "No. Infected/No. Examined", "setting": "Pneumocystis; 50 mg/kg p.o. daily", "result": "10/10"},
      {"measurement": "number of mice with SCORE +1", "setting": "Pneumocystis; 50 mg/kg p.o. daily", "result": 0},
      {"measurement": "number of mice with SCORE +3", "setting": "Pneumocystis; 50 mg/kg p.o. daily", "result": 5},
      {"measurement": "number of mice with SCORE +4", "setting": "Pneumocystis; 50 mg/kg p.o. daily", "result": 5},
      {"measurement": "number of mice with SCORE 0", "setting": "Pneumocystis; 50 mg/kg p.o. daily", "result": 0},
      {"measurement": "number of mice with SCORE +4", "setting": "Pneumocystis; 50 mg/kg p.o. daily, +4 = very heavy infection", "result": 0},
      {"measurement": "infection score (in words)", "setting": "Pneumocystis; dosed alone", "result": "reductions in the infection score"},
      {"measurement": "% of Control", "setting": "Pneumocystis; 25 mg/kg p.o. daily", "result": 84, "unit": "%"},
      {"measurement": "% of Control", "setting": "Pneumocystis; 50 mg/kg p.o. daily", "result": 68, "unit": "%"},
      {"measurement": "percent survival", "setting": "T. gondii C56 strain; 10 mg/kg", "result": 10, "unit": "%"},
      {"measurement": "Mean Time to Death", "setting": "T. gondii C56 strain; 10 mg/kg", "result": 20.1, "unit": "days"},
      {"measurement": "percent survival", "setting": "T. gondii C56 strain; 25 mg/kg", "result": 10, "unit": "%"},
      {"measurement": "Mean Time to Death", "setting": "T. gondii C56 strain; 25 mg/kg", "result": 24.1, "unit": "days"}
    ]},
    {"smiles": "[H]/N=C(\\N/C(=N/[H])Nc1ccc(Cl)cc1)NC(C)C", "note": "[Proguanil]", "values": [
      {"measurement": "I (interaction parameter)", "setting": "[3]", "result": 2.56},
      {"measurement": "Mean Score ±SE", "setting": "Pneumocystis; 25 mg/kg p.o. daily", "result": "3.80 ± 0.13"},
      {"measurement": "No. Infected/No. Examined", "setting": "Pneumocystis; 25 mg/kg p.o. daily", "result": "10/10"},
      {"measurement": "number of mice with SCORE +1", "setting": "Pneumocystis; 25 mg/kg p.o. daily", "result": 0},
      {"measurement": "number of mice with SCORE +3", "setting": "Pneumocystis; 25 mg/kg p.o. daily", "result": 0},
      {"measurement": "number of mice with SCORE +4", "setting": "Pneumocystis; 25 mg/kg p.o. daily", "result": 2},
      {"measurement": "number of mice with SCORE 0", "setting": "Pneumocystis; 25 mg/kg p.o. daily", "result": 0},
      {"measurement": "number of mice with SCORE +4", "setting": "Pneumocystis; [4]", "result": 8},
      {"measurement": "prophylaxis of PCP in the scid mouse", "setting": "Pneumocystis; alone at 25 mg/kg/day", "result": "ineffective"},
      {"measurement": "% of Control", "setting": "Pneumocystis; 25 mg/kg p.o. daily", "result": 85, "unit": "%"},
      {"measurement": "survivors", "setting": "T. gondii C56 strain; 25 mg/kg", "result": "no survivors"},
      {"measurement": "toxicity to mice", "setting": "T. gondii C56 strain; 25 mg/kg", "result": "exhibits signs of toxicity"},
      {"measurement": "Mean Time to Death", "setting": "T. gondii C56 strain; 25 mg/kg", "result": "9.0 days and 9 days"},
      {"measurement": "I (interaction parameter)", "setting": "[2]", "result": 2.56}
    ]},
    {"smiles": "CCn1cc(C(=O)O)c(=O)c2cc(F)c(N3CCNCC3)cc21", "note": "[Norfloxacin]", "values": [
      {"measurement": "I (interaction parameter)", "setting": "[1]", "result": 1.02}
    ]},
    {"smiles": "CC1(C)N=C(N)N=C(N)N1OCCCOc1cc(Cl)c(Cl)cc1Cl", "note": "[WR99210]", "values": [
      {"measurement": "I (interaction parameter)", "setting": "[1]", "result": 0.02}
    ]},
    {"smiles": "CCN(CC)CCCC(C)Nc1ccnc2cc(Cl)ccc12", "note": "(centres unmarked) [Chloroquine]", "values": [
      {"measurement": "I (interaction parameter)", "setting": "[1]", "result": -1.84},
      {"measurement": "I (interaction parameter)", "setting": "[2]", "result": -1.40}
    ]},
    {"smiles": "OC(c1cc(C(F)(F)F)nc2c(C(F)(F)F)cccc12)C1CCCCN1", "note": "(centres unmarked) [Mefloquine]", "values": [
      {"measurement": "I (interaction parameter)", "setting": "[1]", "result": -1.19}
    ]},
    {"smiles": "CC(C)NC(=N)NC(=N)NOCCCOc1cc(Cl)c(Cl)cc1Cl", "note": "[PS-15]", "values": [
      {"measurement": "I (interaction parameter)", "setting": "[2]", "result": -0.74}
    ]},
    {"smiles": "Nc1ccc(S(=O)(=O)c2ccc(N)cc2)cc1", "note": "[Dapsone]", "values": [
      {"measurement": "I (interaction parameter)", "setting": "[1]", "result": -0.39}
    ]},
    {"smiles": "Cc1nc(C)c(Cl)c(O)c1Cl", "note": "[Clopidol]", "values": [
      {"measurement": "I (interaction parameter)", "setting": "[2]", "result": 0.73}
    ]},
    {"smiles": "C[C@H]1[C@H](OC(=O)CCC(=O)O)O[C@@H]2O[C@@]3(C)CC[C@H]4[C@H](C)CC[C@@H]1[C@@]24OO3", "note": "[Artesunic acid]", "values": [
      {"measurement": "I (interaction parameter)", "setting": "[2]", "result": -0.18}
    ]},
    {"smiles": "CCc1nc(N)nc(N)c1-c1ccc(Cl)cc1", "note": "[Pyrimethamine]", "values": [
      {"measurement": "I (interaction parameter)", "setting": "[3]", "result": -0.48},
      {"measurement": "I (interaction parameter)", "setting": "[1]", "result": 0.36}
    ]},
    {"smiles": "COc1cc(NC(C)CCCN)c2ncccc2c1", "note": "(centres unmarked) [Primaquine]", "values": [
      {"measurement": "I (interaction parameter)", "setting": "[1]", "result": -0.79}
    ]},
    {"smiles": "Oc1ncnc2[nH]ncc12", "note": "[Allopurinol]", "values": [
      {"measurement": "I (interaction parameter)", "setting": "[1]", "result": 1.14},
      {"measurement": "I (interaction parameter)", "setting": "[2]", "result": 0.43}
    ]},
    {"smiles": "CC1(C)N=C(N)N=C(N)N1c1ccc(Cl)cc1", "note": "[Cycloguanil]", "values": [
      {"measurement": "I (interaction parameter)", "setting": "[1]", "result": 2.21},
      {"measurement": "I (interaction parameter)", "setting": "[2]", "result": 1.66}
    ]},
    {"smiles": "Cc1cc(NS(=O)(=O)c2ccc(N)cc2)no1", "note": "[Sulfamethoxazole]", "values": [
      {"measurement": "I (interaction parameter)", "setting": "[1]", "result": 2.75}
    ]},
    {"smiles": "COc1cc(Cc2cnc(N)nc2N)cc(OC)c1OC", "note": "[Trimethoprim]", "values": [
      {"measurement": "I (interaction parameter)", "setting": "[3]", "result": 0.58},
      {"measurement": "I (interaction parameter)", "setting": "[1]", "result": 1.27}
    ]}
  ]
}
